According to DBAASP:
Converted amounts (≈) assume the structure as drawn. “And” between values parts separate entries of the source, which are not always exact repeats. Equal entries are not always repeated. Each block holds one molecule with its values, some of them ahead of it.

Tests used:
Experiment in all cases: ≥ marks a high value that may be exact or a test limit, other limits are often not marked, values filed in µg/mL are converted to µM
[1] = system: Pseudomonas aeruginosa H1001
[2] = system: Escherichia coli ATCC 25922
Staphylococcus simulans = system: Staphylococcus simulans
[3] = system: Acinetobacter baumannii ATCC 19606
[4] = system: Staphylococcus aureus II ATCC 6538P
[5] = system: Pseudomonas aeruginosa ATCC 27853
Micrococcus luteus = system: Micrococcus luteus
[6] = system: Staphylococcus epidermidis LT1324
Acinetobacter baumannii = system: Acinetobacter baumannii
Escherichia coli D21 = system: Escherichia coli D21
[7] = system: Bacillus subtilis KCCM 11495
[8] = system: Escherichia coli KCCM 11569
[9] = system: Psychrobacter faecalis X29
[10] = system: Staphylococcus carnosus KHS
[11] = system: Staphylococcus aureus ATCC 25923
Serratia rubidaea X01 = system: Serratia rubidaea X01
[12] = system: Bacillus licheniformis X39
[13] = system: Rhodococcus rhodochrous X15
[14] = system: Klebsiella pneumoniae 08040724
[15] = system: Pseudomonas aeruginosa 11053
[16] = system: Enterococcus faecalis 981
[17] = system: Pseudomonas aeruginosa CGMCC 1.50
[18] = system: Candida albicans ATCC 10231
Spiroplasma citri R8A2 = system: Spiroplasma citri R8A2
[19] = system: Spiroplasma floricola BNR 1
[20] = system: Mycoplasma mycoides ssp. mycoides SC KH3J
[21] = system: Spiroplasma melliferum BC3
[22] = system: Acholeplasma laidlawii A-EF22
[23] = system: Staphylococcus aureus AS1.72
[24] = system: Staphylococcus aureus KCTC 3881
Candida albicans = system: Candida albicans
Pseudomonas aeruginosa = system: Pseudomonas aeruginosa
[25] = system: Escherichia coli KCTC 2433
[26] = system: Bacillus subtilis ATCC 6633
[27] = system: Klebsiella pneumoniae ATCC 10031
Escherichia coli AS1.349 = system: Escherichia coli AS1.349
[28] = system: Shigella dysenteriae ATCC 9752
[29] = system: Pseudomonas aeruginosa ATCC 9027
Lactococcus lactis = system: Lactococcus lactis
[30] = system: Micrococcus luteus ATCC 4698
[31] = system: Staphylococcus epidermidis ATCC 12228
[32] = system: Candida albicans ATCC 36232
[33] = system: Proteus mirabilis ATCC 25933
Bacillus cereus = system: Bacillus cereus

SMILES: CC[C@H](C)[C@H](NC(=O)[C@H](CCCCN)NC(=O)[C@H](Cc1c[nH]c2ccccc12)NC(=O)[C@H](CCCN=C(N)N)NC(=O)[C@@H](N)CCCN=C(N)N)C(=O)N[C@H](C(=O)N[C@H](C(=O)N[C@H](C(=O)N[C@@H](CCCN=C(N)N)C(=O)N[C@@H](Cc1c[nH]c2ccccc12)C(=O)N[C@@H](CCCCN)C(=O)N[C@@H](CCCCN)C(N)=O)[C@@H](C)CC)C(C)C)C(C)C [RRWKIVVIRWKK]
MIC [1]: 1.2 µM (≈ 2 µg/mL)

SMILES: CC(C)C[C@H](NC(=O)[C@H](CC(C)C)NC(=O)[C@H](CCCCN)NC(=O)[C@H](CC(C)C)NC(=O)[C@H](CC(C)C)NC(=O)[C@H](CCCCN)NC(=O)[C@H](CCCCN)NC(=O)[C@H](CC(C)C)NC(=O)[C@H](CC(C)C)NC(=O)[C@H](CCCCN)NC(=O)[C@H](CCCCN)NC(=O)[C@H](CC(C)C)NC(=O)[C@H](CC(C)C)NC(=O)[C@H](CCCCN)NC(=O)[C@@H](N)CC(C)C)C(N)=O [LKLLKKLLKKLLKLL]
MIC [2]: 13 µM (≈ 23.5 µg/mL)
MIC (Staphylococcus simulans): 2 µM (≈ 3.61 µg/mL)
MIC [3]: 1 µM (≈ 1.8 µg/mL)
MIC [4]: 3 µM (≈ 5.41 µg/mL)
MIC [5]: 24.9 µM and 25 µM
MIC (Micrococcus luteus): 2 µM (≈ 3.61 µg/mL)
MIC [6]: 4 µM (≈ 7.22 µg/mL)
MIC (Acinetobacter baumannii): 6.2 µM (≈ 11.2 µg/mL)
MIC (Escherichia coli D21): 13 µM (≈ 23.5 µg/mL)

SMILES: CC[C@H](C)[C@H](NC(=O)[C@H](CCCCN)NC(=O)[C@@H]1CCCN1C(=O)[C@H](CC(C)C)NC(=O)[C@H](Cc1ccccc1)NC(=O)[C@H](CC(N)=O)NC(=O)[C@H](C)NC(=O)[C@H](C)NC(=O)[C@H](CC(C)C)NC(=O)CNC(=O)[C@H](C)NC(=O)[C@H](CC(C)C)NC(=O)[C@H](CCSC)NC(=O)[C@@H]1CCCN1C(=O)[C@H](CC(C)C)NC(=O)[C@@H](N)Cc1ccccc1)C(=O)N[C@H](C(=O)N[C@H]1CSSC[C@@H](C(=O)O)NC(=O)[C@H](CCCCN)NC(=O)[C@H](CCCCN)NC(=O)[C@H]([C@@H](C)O)NC(=O)[C@H]([C@@H](C)CC)NC(=O)[C@H](CCCCN)NC1=O)C(C)C [FLPMLAGLAANFLPKIVCKITKKC]
MIC [9]: 9 µM (≈ 23.6 µg/mL)
MIC [10]: 1.2 µM (≈ 3.14 µg/mL)
MIC [2]: 75 µM (≈ 196 µg/mL)
MIC [11]: 9 µM (≈ 23.6 µg/mL)
MIC (Serratia rubidaea X01): 4.6 µM (≈ 12 µg/mL)
MIC [12]: 2.3 µM (≈ 6.02 µg/mL)
MIC [13]: 0.6 µM (≈ 1.57 µg/mL)
MIC [14]: ≥ 150 µM
MIC [15]: ≥ 75 µM
MIC [16]: 9 µM (≈ 23.6 µg/mL)
MIC [17]: ≥ 75 µM
MIC [18]: 37.5 µM (≈ 98.2 µg/mL)

The remaining lines, values ahead:

MIC [7]: ≥ 46 µM
MIC [8]: ≥ 46 µM
SMILES: CC(C)C[C@H](NC(=O)CNC(=O)[C@H](Cc1cnc[nH]1)NC(=O)[C@H](Cc1cnc[nH]1)NC(=O)[C@H](CC(C)C)NC(=O)[C@H](CC(C)C)NC(=O)[C@H](C)NC(=O)[C@H](CC(N)=O)NC(=O)[C@H](CC(C)C)NC(=O)[C@@H](N)Cc1c[nH]c2ccccc12)C(=O)N[C@@H](CC(N)=O)C(=O)N[C@@H](CS)C(N)=O [WLNALLHHGLNC]

MIC (Spiroplasma citri R8A2): 6.25 µM (≈ 12.4 µg/mL)
MIC [19]: 6.25 µM (≈ 12.4 µg/mL)
MIC [20]: 12.5 µM (≈ 24.9 µg/mL)
MIC [21]: 6.25 µM (≈ 12.4 µg/mL)
MIC [22]: 0.78 µM (≈ 1.55 µg/mL)
SMILES: CC(C)C[C@H](NC(=O)[C@H](CCCCN)NC(=O)[C@H](CC(C)C)NC(=O)[C@H](CC(C)C)NC(=O)[C@H](CCCCN)NC(=O)[C@H](CC(C)C)NC(=O)[C@H](CC(C)C)NC(=O)[C@H](CCCCN)NC(=O)[C@H](CC(C)C)NC(=O)[C@H](CC(C)C)NC(=O)[C@H](CCCCN)NC(=O)[C@H](CC(C)C)NC(=O)[C@H](CC(C)C)NC(=O)[C@@H](N)CCCCN)C(=O)N[C@@H](Cc1c[nH]c2ccccc12)C(=O)N[C@@H](CCCCN)C(=O)O [KLLKLLKLLKLLKLWK]

MIC [23]: ≥ 37.5 µM
MIC [24]: 9.04 µM (≈ 30 µg/mL)
MIC (Candida albicans): 50 µM (≈ 166 µg/mL)
MIC (Pseudomonas aeruginosa): > 100 µM
MIC [25]: 4.52 µM (≈ 15 µg/mL)
MIC [26]: 15.1 µM (≈ 50 µg/mL)
MIC [27]: 4.52 µM (≈ 15 µg/mL)
MIC (Escherichia coli AS1.349): ≥ 100 µM
MIC [28]: 18.1 µM (≈ 60 µg/mL)
MIC [29]: > 30.1 µM
MIC (Lactococcus lactis): ≥ 37.5 µM
MIC [30]: 1.88 µM (≈ 6.25 µg/mL)
MIC [31]: 18.1 µM (≈ 60 µg/mL)
MIC [32]: 30.1 µM (≈ 99.9 µg/mL)
MIC [33]: 30.1 µM (≈ 99.9 µg/mL)
MIC (Bacillus cereus): ≥ 37.5 µM
SMILES: CC(C)C[C@H](NC(=O)CN)C(=O)N[C@@H](Cc1ccccc1)C(=O)N[C@@H](CC(=O)O)C(=O)N[C@H](C(=O)N[C@H](C(=O)N[C@@H](CCCCN)C(=O)NCC(=O)N[C@H](C(=O)N[C@@H](CC(C)C)C(=O)N[C@@H](CCCCN)C(=O)NCC(=O)N[C@H](C(=O)NCC(=O)N[C@@H](CCCCN)C(=O)N[C@@H](CC(N)=O)C(=O)N[C@H](C(=O)N[C@@H](C)C(=O)NCC(=O)N[C@@H](CO)C(=O)N[C@@H](CC(C)C)C(=O)N[C@@H](CC(C)C)C(=O)N[C@@H](CCC(=O)O)C(=O)N[C@@H](CCC(N)=O)C(=O)N[C@@H](CC(C)C)C(=O)N[C@@H](CCCCN)C(=O)N[C@H]1CSSC[C@@H](C(=O)O)NC(=O)CNC(=O)CNC(=O)[C@H](CO)NC(=O)[C@H](CC(C)C)NC(=O)[C@H](CCCCN)NC1=O)C(C)C)C(C)C)C(C)C)C(C)C)C(C)C [GLFDVVKGVLKGVGKNVAGSLLEQLKCKLSGGC]
